# Laboratory results reported in US10195204B2, “Methods of treating hemoglobinopathies” (DUKE UNIVERSITY, priority 2011, dated 2019).
# “Also recorded” adds a separate entry of the source.
# Test system: SS RBC adhesion to TNF-α-activated HUVECs
# Assay: Flow chamber adhesion of SS RBCs to TNF-α-activated HUVECs
# Format: cell-based, human
# Method: Cells were then washed three times with 5 ml PBS with Ca^2+ and Mg^2+. Prior to adhesion assays, washed treated SS RBCs were labeled with PKH 26 red fluorescent cell linker kit (Sigma-Aldrich, St. Louis, Mo.), following the manufacturer's instructions.
# Graduated height flow chambers were used to quantify adhesion of RBCs to HUVECs substantially as previously described in detail.^4, 20 In some adhesion studies, slides coated with HUVECs were treated with human recombinant TNF-α at 10 ng/ml for 4 hours. Slides coated with HUVECs treated or not with TNF-α were then washed three times with 20 ml HBSS with 1.26 mM Ca^2+, 0.9 mM Mg^2+ (Gibco, Grand Island, N.Y.) warmed previously to 37° C. and then fit into a variable height flow chamber. The flow chamber was mounted on the stage of an inverted phase contrast microscope (Diaphot, Nikon Inc., Melville, N.Y.) connected to a thermoplate (Tokai Hit Co., Ltd., Japan) set at 37° C. Cells were observed using a video camera (RS photometrics,) attached to the microscope and connected to a Macintosh G4 computer. RBC (3 ml) suspended at 0.2% (vol/vol) in HBSS with Ca^2+, Mg^2+ were infused into the flow chamber and allowed to adhere to the slide for 10 min without flow. Before exposure to flow, a minimum of three fields at each of seven different locations along a line oriented normal to future flow were examined for the total number of fluorescent cells. Fluid flow (HBSS with Ca^2+, Mg^2+) was then started using a calibrated syringe pump. After exposure to flow, the fields were again examined and the number of adherent cells counted. The fraction of adherent cells was presented as (number of cells attached after exposure to flow)/(cells present per field before flow). The wall shear stress was calculated as:
# [formula] τw=wall shear stress (dyne/cm^2); Q=volumetric flow rate (cm^3/s); μ is media viscosity, w is the width of the flow channel, and H(x) is the height of the flow chamber as a function of position along the microscope slide. Several investigators have shown that blood flow in small vessels may be continuous, with shear stresses of 1-2 dynes/cm^2, or flow may be intermittent. Our data were obtained using both intermittent and continuous flow conditions.
structure (smiles),measurement,setting,value
N#CC(=C(/N)Sc1ccccc1N)/C(C#N)=C(\N)Sc1ccccc1N [U0126],SS RBCs adherent to TNF-α-activated HUVECs,SS RBCs pre-treated with 10 μM U0126,18±5%
same,effect on SS RBC adhesion to TNF-α-activated HUVECs,SS RBCs treated with MEK inhibitor (10 μM; RDEA119 1 and 10 μM),significantly reduced; also recorded: significantly inhibited
